Measurements taken from PubChem BioAssay AID328 (DTP/NCI, 2004).
Values joined by “and” are separate entries in the source; they are usually repeats but may differ in a detail not shown here. Equal entries are not always repeated. Toxic doses and inconclusive results are not listed.

Tested on: BDF1 mice, P388 leukemia ip, median survival T/C
Test: NCI In Vivo Anticancer Drug Screen. Data for tumor model P388 Leukemia (intraperitoneal) in B6D2F1 (BDF1) mice
Conditions: endpoint: median survival time, higher = longer survival
How it was run: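 Antitumour effect was judged in vivo: survival in drug-treated mice, normalised to that of vehicle-dosed controls, gives the reported T/C.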

SMILES: CC(C)[C@](O)(C(=O)OCC1=CC[N+]2([O-])CC[C@@H](O)[C@@H]12)[C@H](C)O (stereo partly drawn)
- T/C (dose: 6.2 mg/kg/injection, schedule: Q01DX009 (ip), vehicle: water): 113 % of control
- T/C (dose: 8.0 mg/kg/injection, schedule: Q03HX024 (ip), vehicle: water): 100 % of control
- T/C (dose: 16.0 mg/kg/injection, schedule: Q03HX008 (ip), vehicle: saline): 100 % of control
- T/C (dose: 16.0 mg/kg/injection, schedule: Q03HX008 (ip), vehicle: water): 95 % of control
- T/C (dose: 16.0 mg/kg/injection, schedule: Q03HX016 (ip), vehicle: saline): 90 % of control
- T/C (dose: 16.0 mg/kg/injection, schedule: Q03HX016 (ip), vehicle: water): 100 % of control
- T/C (dose: 16.0 mg/kg/injection, schedule: Q03HX024 (ip), vehicle: saline): 90 % of control
- T/C (dose: 16.0 mg/kg/injection, schedule: Q03HX024 (ip), vehicle: water): 90 % of control
- T/C (dose: 25.0 mg/kg/injection, schedule: Q01DX009 (ip), vehicle: saline): 110 % of control
- T/C (dose: 25.0 mg/kg/injection, schedule: Q01DX009 (ip), vehicle: water): 118 % of control
- T/C (dose: 32.0 mg/kg/injection, schedule: Q03HX008 (ip), vehicle: saline): 105 % of control
- T/C (dose: 32.0 mg/kg/injection, schedule: Q03HX008 (ip), vehicle: water): 100 % of control
- T/C (dose: 32.0 mg/kg/injection, schedule: Q03HX016 (ip), vehicle: saline): 100 % of control
- T/C (dose: 32.0 mg/kg/injection, schedule: Q03HX016 (ip), vehicle: water): 100 % of control
- T/C (dose: 32.0 mg/kg/injection, schedule: Q03HX024 (ip), vehicle: saline): 100 % of control
- T/C (dose: 32.0 mg/kg/injection, schedule: Q03HX024 (ip), vehicle: water): 100 % of control
- T/C (dose: 64.0 mg/kg/injection, schedule: Q01DX009 (ip), vehicle: saline): 105 % of control
- T/C (dose: 64.0 mg/kg/injection, schedule: Q03HX008 (ip), vehicle: saline): 100 % of control
- T/C (dose: 64.0 mg/kg/injection, schedule: Q03HX008 (ip), vehicle: water): 100 % of control
- T/C (dose: 64.0 mg/kg/injection, schedule: Q03HX016 (ip), vehicle: saline): 105 % of control
- T/C (dose: 64.0 mg/kg/injection, schedule: Q03HX016 (ip), vehicle: water): 100 % of control
- T/C (dose: 64.0 mg/kg/injection, schedule: Q03HX024 (ip), vehicle: saline): 105 % of control
- T/C (dose: 64.0 mg/kg/injection, schedule: Q03HX024 (ip), vehicle: water): 95 % of control
- T/C (dose: 64.0 mg/kg/injection, schedule: Q04DX003 (ip), vehicle: water): 100 % of control
- T/C (dose: 100.0 mg/kg/injection, schedule: Q04DX002 (ip), vehicle: saline): 108 % of control
- T/C (dose: 128.0 mg/kg/injection, schedule: Q01DX001 (ip), vehicle: saline): 95 % of control
- T/C (dose: 128.0 mg/kg/injection, schedule: Q01DX009 (ip), vehicle: saline): 89 % of control
- T/C (dose: 128.0 mg/kg/injection, schedule: Q01DX009 (sc), vehicle: water): 95 % of control
- T/C (dose: 128.0 mg/kg/injection, schedule: Q03HX008 (ip), vehicle: saline): 95 % of control
- T/C (dose: 128.0 mg/kg/injection, schedule: Q03HX016 (ip), vehicle: saline): 100 % of control
- T/C (dose: 128.0 mg/kg/injection, schedule: Q03HX016 (ip), vehicle: water): 100 % of control
- T/C (dose: 128.0 mg/kg/injection, schedule: Q03HX024 (ip), vehicle: saline): 105 % of control
- T/C (dose: 128.0 mg/kg/injection, schedule: Q03HX024 (ip), vehicle: water): 100 % of control
- T/C (dose: 128.0 mg/kg/injection, schedule: Q04DX003 (ip), vehicle: saline): 95 % of control
- T/C (dose: 128.0 mg/kg/injection, schedule: Q04DX003 (ip), vehicle: water): 100 % of control
- T/C (dose: 128.0 mg/kg/injection, schedule: Q08DX002 (ip), vehicle: saline): 90 % of control
- T/C (dose: 200.0 mg/kg/injection, schedule: Q01DX001 (ip), vehicle: saline): 95 % of control
- T/C (dose: 200.0 mg/kg/injection, schedule: Q01DX009 (ip), vehicle: other): 157 % of control
- T/C (dose: 200.0 mg/kg/injection, schedule: Q04DX002 (ip), vehicle: saline): 100 % of control
- T/C (dose: 250.0 mg/kg/injection, schedule: Q04DX003 (ip), vehicle: water): 154 % of control
- T/C (dose: 256.0 mg/kg/injection, schedule: Q01DX001 (ip), vehicle: saline): 90 % of control
- T/C (dose: 256.0 mg/kg/injection, schedule: Q01DX001 (ip), vehicle: water): 118 % of control
- T/C (dose: 256.0 mg/kg/injection, schedule: Q01DX009 (ip), vehicle: saline): 96 % of control
- T/C (dose: 256.0 mg/kg/injection, schedule: Q01DX009 (ip), vehicle: water): 154 % of control
- T/C (dose: 256.0 mg/kg/injection, schedule: Q01DX009 (oral), vehicle: water): 90 % of control
- T/C (dose: 256.0 mg/kg/injection, schedule: Q01DX009 (sc), vehicle: water): 100 % of control
- T/C (dose: 256.0 mg/kg/injection, schedule: Q03HX008 (ip), vehicle: saline): 120 % of control
- T/C (dose: 256.0 mg/kg/injection, schedule: Q03HX016 (ip), vehicle: saline): 105 % of control
- T/C (dose: 256.0 mg/kg/injection, schedule: Q03HX024 (ip), vehicle: saline): 95 % of control
- T/C (dose: 256.0 mg/kg/injection, schedule: Q04DX003 (ip), vehicle: saline): 100 % of control
- T/C (dose: 256.0 mg/kg/injection, schedule: Q04DX003 (ip), vehicle: water): 104 % of control
- T/C (dose: 288.0 mg/kg/injection, schedule: Q01DX009 (ip), vehicle: water): 159 % of control
- T/C (dose: 360.0 mg/kg/injection, schedule: Q01DX009 (ip), vehicle: water): 175 % of control
- T/C (dose: 400.0 mg/kg/injection, schedule: Q01DX009 (ip), vehicle: other): 105 % of control
- T/C (dose: 500.0 mg/kg/injection, schedule: Q01DX001 (ip), vehicle: water): 154 % of control
- T/C (dose: 500.0 mg/kg/injection, schedule: Q04DX003 (ip), vehicle: water): 172 % of control
- T/C (dose: 500.0 mg/kg/injection, schedule: Q08DX002 (ip), vehicle: water): 163 % of control
- T/C (dose: 512.0 mg/kg/injection, schedule: Q01DX001 (ip), vehicle: saline): 100 % of control
- T/C (dose: 512.0 mg/kg/injection, schedule: Q01DX001 (ip), vehicle: water): 118 % of control
- T/C (dose: 512.0 mg/kg/injection, schedule: Q01DX009 (ip), vehicle: saline): 100 % of control
- T/C (dose: 512.0 mg/kg/injection, schedule: Q01DX009 (ip), vehicle: water): 172 % of control
- T/C (dose: 512.0 mg/kg/injection, schedule: Q01DX009 (oral), vehicle: water): 95 % of control
- T/C (dose: 512.0 mg/kg/injection, schedule: Q01DX009 (sc), vehicle: water): 90 % of control
- T/C (dose: 512.0 mg/kg/injection, schedule: Q04DX003 (ip), vehicle: saline): 90 % of control
- T/C (dose: 512.0 mg/kg/injection, schedule: Q04DX003 (ip), vehicle: water): 100 % of control
- T/C (dose: 600.0 mg/kg/injection, schedule: Q01DX009 (ip), vehicle: water): 163 % of control and 169 % of control
- T/C (dose: 750.0 mg/kg/injection, schedule: Q01DX005 (ip), vehicle: water): 100 % of control
- T/C (dose: 800.0 mg/kg/injection, schedule: Q01DX001 (ip), vehicle: saline): 108 % of control
- T/C (dose: 800.0 mg/kg/injection, schedule: Q01DX009 (ip), vehicle: other): 99 % of control
- T/C (dose: 1000.0 mg/kg/injection, schedule: Q01DX001 (ip), vehicle: water): 154 % of control
- T/C (dose: 1000.0 mg/kg/injection, schedule: Q04DX003 (ip), vehicle: water): 195 % of control
- T/C (dose: 1000.0 mg/kg/injection, schedule: Q08DX002 (ip), vehicle: water): 177 % of control
- T/C (dose: 1024.0 mg/kg/injection, schedule: Q01DX001 (ip), vehicle: saline): 100 % of control
- T/C (dose: 1024.0 mg/kg/injection, schedule: Q01DX001 (ip), vehicle: water): 95 % of control
- T/C (dose: 1024.0 mg/kg/injection, schedule: Q01DX009 (ip), vehicle: saline): 160 % of control
- T/C (dose: 1024.0 mg/kg/injection, schedule: Q01DX009 (oral), vehicle: water): 90 % of control
- T/C (dose: 1024.0 mg/kg/injection, schedule: Q01DX009 (sc), vehicle: water): 90 % of control
- T/C (dose: 1024.0 mg/kg/injection, schedule: Q04DX003 (ip), vehicle: saline): 110 % of control
- T/C (dose: 1024.0 mg/kg/injection, schedule: Q04DX003 (ip), vehicle: water): 100 % of control
- T/C (dose: 1024.0 mg/kg/injection, schedule: Q08DX002 (ip), vehicle: saline): 100 % of control
- T/C (dose: 1024.0 mg/kg/injection, schedule: Q08DX002 (ip), vehicle: water): 95 % of control
- T/C (dose: 1500.0 mg/kg/injection, schedule: Q01DX001 (ip), vehicle: water): 163 % of control
- T/C (dose: 1500.0 mg/kg/injection, schedule: Q08DX002 (ip), vehicle: water): 181 % of control
- T/C (dose: 2048.0 mg/kg/injection, schedule: Q01DX001 (ip), vehicle: saline): 120 % of control
- T/C (dose: 2048.0 mg/kg/injection, schedule: Q01DX001 (ip), vehicle: water): 113 % of control
- T/C (dose: 2048.0 mg/kg/injection, schedule: Q01DX009 (oral), vehicle: water): 90 % of control
- T/C (dose: 2048.0 mg/kg/injection, schedule: Q08DX002 (ip), vehicle: saline): 105 % of control
- T/C (dose: 2048.0 mg/kg/injection, schedule: Q08DX002 (ip), vehicle: water): 118 % of control
